Source: ChEMBL document CHEMBL1201861, “Genomics of Drug Sensitity in Cancer screening data, Wellcome Trust Sanger Institute”

Experiments:
Test in all cases: cells
DSH1 = type: functional, cell-based; conditions: Homo sapiens;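 note: growth inhibition of human DSH1 cells, measured with a cell viability readout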
Description: SANGER: Inhibition of human DSH1 cell growth in a cell viability assay.

ES1 = type: functional, cell-based, Homo sapiens; conditions: Homo sapiens, ES1
Description: SANGER: Inhibition of human ES1 cell growth in a cell viability assay.

ES3 = type: functional, cell-based, Homo sapiens; conditions: Homo sapiens, ES3;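 note: growth inhibition of ES3 cells, read out with a cell viability assay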
Description: SANGER: Inhibition of human ES3 cell growth in a cell viability assay.

GI-1 = type: functional, cell-based, Homo sapiens; conditions: Homo sapiens, GI-1;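 note: growth inhibition of human GI-1 cells, measured with a cell viability readout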
Description: SANGER: Inhibition of human GI-1 cell growth in a cell viability assay.

HAL-01 = type: functional, cell-based, Homo sapiens; conditions: Homo sapiens, HAL-01;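 note: growth inhibition of human HAL-01 cells, read out with a cell viability assay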
Description: SANGER: Inhibition of human HAL-01 cell growth in a cell viability assay.

HD-MY-Z = type: functional, cell-based, Homo sapiens; conditions: Homo sapiens, HD-MY-Z;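 note: growth inhibition of HD-MY-Z cells, read out with a cell viability assay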
Description: SANGER: Inhibition of human HD-MY-Z cell growth in a cell viability assay.

IA-LM = type: functional, cell-based; conditions: Homo sapiens;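 note: cell viability assay measuring growth inhibition of human IA-LM cells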
Description: SANGER: Inhibition of human IA-LM cell growth in a cell viability assay.

IST-MES1 = type: functional, cell-based, Homo sapiens; conditions: Homo sapiens, IST-MES1;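 note: growth inhibition of IST-MES1 cells, measured with a cell viability assay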
Description: SANGER: Inhibition of human IST-MES1 cell growth in a cell viability assay.

JAR = type: functional, cell-based, Homo sapiens; conditions: Homo sapiens, JAR;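 note: growth inhibition of human JAR cells determined with a cell viability assay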
Description: SANGER: Inhibition of human JAR cell growth in a cell viability assay.

KE-37 = type: functional, cell-based, Homo sapiens; conditions: Homo sapiens, KE-37;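 note: growth inhibition of KE-37 cells, read out with a cell viability assay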
Description: SANGER: Inhibition of human KE-37 cell growth in a cell viability assay.

KG-1 = type: functional, cell-based, Homo sapiens; conditions: Homo sapiens, KG-1;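 note: growth inhibition of KG-1 cells, read out by a cell viability assay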
Description: SANGER: Inhibition of human KG-1 cell growth in a cell viability assay.

KLE = type: functional, cell-based; conditions: Homo sapiens;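 note: growth inhibition of human KLE cells, read out with a cell viability assay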
Description: SANGER: Inhibition of human KLE cell growth in a cell viability assay.

KM12 = type: functional, cell-based, Homo sapiens; conditions: Homo sapiens, KM12;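 note: KM12 cell growth inhibition, read out with a cell viability assay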
Description: SANGER: Inhibition of human KM12 cell growth in a cell viability assay.

L-363 = type: functional, cell-based, Homo sapiens; conditions: Homo sapiens, L-363
Description: SANGER: Inhibition of human L-363 cell growth in a cell viability assay.

LAMA-84 = type: functional, cell-based, Homo sapiens; conditions: Homo sapiens, LAMA-84;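 note: growth inhibition of LAMA-84 cells, read out with a cell viability assay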
Description: SANGER: Inhibition of human LAMA-84 cell growth in a cell viability assay.

LOX IMVI = type: functional, cell-based, Homo sapiens; conditions: Homo sapiens, LOX IMVI
Description: SANGER: Inhibition of human LOXIMVI cell growth in a cell viability assay.

LS-513 = type: functional, cell-based, Homo sapiens; conditions: Homo sapiens, LS-513
Description: SANGER: Inhibition of human LS-513 cell growth in a cell viability assay.

MFM-223 = type: functional, cell-based, Homo sapiens; conditions: Homo sapiens, MFM-223
Description: SANGER: Inhibition of human MFM-223 cell growth in a cell viability assay.

MLMA = type: functional, cell-based, Homo sapiens; conditions: Homo sapiens, MLMA;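 note: growth inhibition of MLMA cells (human), determined through a cell viability readout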
Description: SANGER: Inhibition of human MLMA cell growth in a cell viability assay.

MOLT-4 = type: functional, cell-based, Homo sapiens; conditions: Homo sapiens, MOLT-4;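 note: growth inhibition of MOLT-4 cells, determined with a cell viability readout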
Description: SANGER: Inhibition of human MOLT-4 cell growth in a cell viability assay.

MPP-89 = type: functional, cell-based, Homo sapiens; conditions: Homo sapiens, MPP-89;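 note: growth inhibition of human MPP-89 cells, read out with a cell viability assay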
Description: SANGER: Inhibition of human MPP-89 cell growth in a cell viability assay.

MZ7-mel = type: functional, cell-based, Homo sapiens; conditions: Homo sapiens, MZ7-mel;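 note: growth inhibition of human MZ7-mel cells, measured by a cell viability assay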
Description: SANGER: Inhibition of human MZ7-mel cell growth in a cell viability assay.

NB13 = type: functional, cell-based, Homo sapiens; conditions: Homo sapiens, NB13;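 note: cell viability readout measuring growth inhibition of human NB13 cells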
Description: SANGER: Inhibition of human NB13 cell growth in a cell viability assay.

NCI-H1838 = type: functional, cell-based, Homo sapiens; conditions: Homo sapiens, NCI-H1838;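 note: growth inhibition of NCI-H1838 cells, determined with a cell viability readout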
Description: SANGER: Inhibition of human NCI-H1838 cell growth in a cell viability assay.

NCI-H226 = type: functional, cell-based, Homo sapiens; conditions: Homo sapiens, NCI-H226;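 note: cell viability read-out used to gauge growth inhibition of the cells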
Description: SANGER: Inhibition of human NCI-H226 cell growth in a cell viability assay.

NCI-H23 = type: functional, cell-based, Homo sapiens; conditions: Homo sapiens, NCI-H23;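 note: cell viability assay measuring growth inhibition of NCI-H23 cells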
Description: SANGER: Inhibition of human NCI-H23 cell growth in a cell viability assay.

NH-12 = type: functional, cell-based, Homo sapiens; conditions: Homo sapiens, NH-12;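 note: growth inhibition of NH-12 cells, read out with a cell viability assay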
Description: SANGER: Inhibition of human NH-12 cell growth in a cell viability assay.

QIMR-WIL = type: functional, cell-based, Homo sapiens; conditions: Homo sapiens, QIMR-WIL;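 note: growth inhibition of QIMR-WIL cells, read out with a cell viability assay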
Description: SANGER: Inhibition of human QIMR-WIL cell growth in a cell viability assay.

RH-1 = type: functional, cell-based, Homo sapiens; conditions: Homo sapiens, RH-1;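 note: growth inhibition of human RH-1 cells, read out with a cell viability assay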
Description: SANGER: Inhibition of human RH-1 cell growth in a cell viability assay.

SF-126 = type: functional, cell-based, Homo sapiens; conditions: Homo sapiens, SF-126;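 note: growth inhibition of human SF126 cells, read out with a cell viability assay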
Description: SANGER: Inhibition of human SF126 cell growth in a cell viability assay.

SHP77 = type: functional, cell-based, Homo sapiens, SHP-77; conditions: Homo sapiens, SHP77;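 note: growth inhibition of human SHP-77 cells measured by a cell viability assay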
Description: SANGER: Inhibition of human SHP-77 cell growth in a cell viability assay.

SJSA-1 = type: functional, cell-based, Homo sapiens; conditions: Homo sapiens, SJSA-1;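 note: growth inhibition of human SJSA-1 cells, read out through a cell viability measurement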
Description: SANGER: Inhibition of human SJSA-1 cell growth in a cell viability assay.

SK-N-DZ = type: functional, cell-based, Homo sapiens; conditions: Homo sapiens, SK-N-DZ; read-out: IC50;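 note: growth inhibition of the cancer cell line, read out through a viability assay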
Description: SANGER: Inhibition of human SK-N-DZ cell growth in a cell viability assay.

SK-PN-DW = type: functional, cell-based, Homo sapiens; conditions: Homo sapiens, SK-PN-DW;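 note: growth inhibition measured with a viability assay on these cells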
Description: SANGER: Inhibition of human SK-PN-DW cell growth in a cell viability assay.

SW684 = type: functional, cell-based, Homo sapiens; conditions: Homo sapiens, SW684; read-out: IC50;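 note: growth inhibition of human SW684 cells, measured by a cell viability assay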
Description: SANGER: Inhibition of human SW684 cell growth in a cell viability assay.

SW 962 = type: functional, cell-based, Homo sapiens; conditions: Homo sapiens, SW 962;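 note: growth inhibition of human SW962 cells, read out by a cell viability assay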
Description: SANGER: Inhibition of human SW962 cell growth in a cell viability assay.

TE-1 = type: functional, cell-based, Homo sapiens; conditions: Homo sapiens, TE-1;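 note: growth inhibition of the human TE-1 cell line, read out with a cell viability assay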
Description: SANGER: Inhibition of human TE-1 cell growth in a cell viability assay.

A101D = type: functional, cell-based, Homo sapiens; conditions: Homo sapiens, A101D;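 note: growth inhibition of the cell line, measured with a viability assay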
Description: SANGER: Inhibition of human A101D cell growth in a cell viability assay.

A253 cell line = type: functional, cell-based, Homo sapiens; conditions: Homo sapiens, A253;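 note: growth inhibition of A253 cells, read out with a cell viability assay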
Description: SANGER: Inhibition of human A253 cell growth in a cell viability assay.

ACN = type: functional, cell-based, Homo sapiens; conditions: Homo sapiens, ACN;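 note: growth inhibition of the human ACN cell line, read out via cell viability testing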
Description: SANGER: Inhibition of human ACN cell growth in a cell viability assay.

AM-38 = type: functional, cell-based, Homo sapiens; conditions: Homo sapiens, AM-38;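 note: growth inhibition of AM-38 cells of human origin, read out by a cell viability assay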
Description: SANGER: Inhibition of human AM-38 cell growth in a cell viability assay.

BE-13 = type: functional, cell-based, Homo sapiens; conditions: Homo sapiens, BE-13;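 note: growth inhibition of human BE-13 cells, measured with a cell viability assay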
Description: SANGER: Inhibition of human BE-13 cell growth in a cell viability assay.

C2BBe1 = type: functional, cell-based, Homo sapiens; conditions: Homo sapiens, C2BBe1;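 note: growth inhibition of C2BBe1 cells, read out through a viability assay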
Description: SANGER: Inhibition of human C2BBe1 cell growth in a cell viability assay.

TE-5 = type: functional, cell-based, Homo sapiens; conditions: Homo sapiens, TE-5;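 note: inhibition of cell growth, read out by a cell viability assay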
Description: SANGER: Inhibition of human TE-5 cell growth in a cell viability assay.

CCRF-CEM = type: functional, cell-based, Homo sapiens; conditions: Homo sapiens, CCRF-CEM;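 note: inhibition of CCRF-CEM cell growth, measured by a cell viability assay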
Description: SANGER: Inhibition of human CCRF-CEM cell growth in a cell viability assay.

Compound CS(=O)(=O)N1CCN(Cc2cc3nc(-c4cccc5[nH]ncc45)nc(N4CCOCC4)c3s2)CC1 [PICTILISIB] has an IC50 (DSH1) of over 4 µM, an IC50 (ES1) of 2.21 µM and an IC50 (ES3) of over 4 µM. It also gave an IC50 (GI-1) of over 4 µM, an IC50 (HAL-01) of 0.207 µM and an IC50 (HD-MY-Z) of over 4 µM. The IC50 (IA-LM) was over 4 µM, the IC50 (IST-MES1) was over 4 µM and the IC50 (JAR) was over 4 µM. The IC50 (KE-37) was over 4 µM, the IC50 (KG-1) was over 4 µM and the IC50 (KLE) was over 4 µM. It also gave an IC50 (KM12) of over 4 µM, an IC50 (L-363) of 0.798 µM and an IC50 (LAMA-84) of 2.03 µM. For the same compound, the IC50 (LOX IMVI) was 2.04 µM, the IC50 (LS-513) was over 4 µM and the IC50 (MFM-223) was over 4 µM. It also gave an IC50 (MLMA) of over 4 µM, an IC50 (MOLT-4) of 0.624 µM and an IC50 (MPP-89) of over 4 µM. It also gave an IC50 (MZ7-mel) of over 4 µM, an IC50 (NB13) of over 4 µM and an IC50 (NCI-H1838) of over 4 µM. It also gave an IC50 (NCI-H226) of over 4 µM, an IC50 (NCI-H23) of over 4 µM and an IC50 (NH-12) of 2.05 µM. The IC50 (QIMR-WIL) was 0.865 µM, the IC50 (RH-1) was over 4 µM and the IC50 (SF-126) was 2.31 µM. For the same compound, the IC50 (SHP77) was over 4 µM, the IC50 (SJSA-1) was 3.71 µM and the IC50 (SK-N-DZ) was over 4 µM. For the same compound, the IC50 (SK-PN-DW) was over 4 µM, the IC50 (SW684) was over 4 µM and the IC50 (SW 962) was 3.73 µM. The IC50 (TE-1) was over 4 µM, the IC50 (A101D) was 0.99 µM and the IC50 (A253 cell line) was over 4 µM. It also gave an IC50 (ACN) of over 4 µM, an IC50 (AM-38) of over 4 µM and an IC50 (BE-13) of over 4 µM. It also gave an IC50 (C2BBe1) of over 4 µM, an IC50 (TE-5) of over 4 µM and an IC50 (CCRF-CEM) of over 4 µM.

O=C(NCCCNc1nc(Nc2cccc(NC(=O)N3CCCC3)c2)ncc1I)c1cccs1 [BX-795] was tested, and the IC50 (DSH1) was over 5 µM, the IC50 (ES1) was 1.75 µM and the IC50 (ES3) was 2.62 µM. For the same compound, the IC50 (GI-1) was over 5 µM, the IC50 (HAL-01) was over 5 µM and the IC50 (HD-MY-Z) was 3.87 µM. The IC50 (IA-LM) was 4.85 µM, the IC50 (IST-MES1) was over 5 µM and the IC50 (JAR) was 3.44 µM. The IC50 (KE-37) was 3.1 µM, the IC50 (KG-1) was 2.28 µM and the IC50 (KLE) was over 5 µM. For the same compound, the IC50 (KM12) was 3.3 µM, the IC50 (L-363) was 1.18 µM and the IC50 (LAMA-84) was 1.77 µM. It also gave an IC50 (LOX IMVI) of 1.51 µM, an IC50 (LS-513) of over 5 µM and an IC50 (MFM-223) of over 5 µM. For the same compound, the IC50 (MLMA) was over 5 µM, the IC50 (MOLT-4) was 1.03 µM and the IC50 (MPP-89) was over 5 µM. It also gave an IC50 (MZ7-mel) of over 5 µM, an IC50 (NB13) of 4.02 µM and an IC50 (NCI-H1838) of over 5 µM. The IC50 (NCI-H226) was over 5 µM, the IC50 (NCI-H23) was over 5 µM and the IC50 (NH-12) was 2.8 µM. It also gave an IC50 (QIMR-WIL) of 2.29 µM, an IC50 (RH-1) of 1.7 µM and an IC50 (SF-126) of 2.44 µM. It also gave an IC50 (SHP77) of over 5 µM, an IC50 (SJSA-1) of over 5 µM and an IC50 (SK-N-DZ) of over 5 µM. For the same compound, the IC50 (SK-PN-DW) was over 5 µM, the IC50 (SW684) was over 5 µM and the IC50 (SW 962) was 2.34 µM. The IC50 (TE-1) was over 5 µM, the IC50 (A101D) was 3.64 µM and the IC50 (A253 cell line) was 4.19 µM. The IC50 (ACN) was over 5 µM, the IC50 (AM-38) was over 5 µM and the IC50 (BE-13) was 0.705 µM. It also gave an IC50 (C2BBe1) of over 5 µM, an IC50 (TE-5) of over 5 µM and an IC50 (CCRF-CEM) of over 5 µM.
